Earlier results in patent publication US20070281983A1, “Creatine analog prodrugs, compositions and uses thereof” (XenoPort, Inc., priority 2006, published 2007).
Read-outs that look alike come from different tables or passages of the source.

Legend:
[1] = healthy volunteers, oral creatine administration
[2] = not given; remark: listed apart in the source
[3] = animals, diet containing up to 1% cyclocreatine

In the case of `CN(CC(=O)O)C(=N)N` [creatine, Creatine], the “overall increase in creatine phosphate levels” value (creatine supplementation, typically takes weeks) is listed as < 50%, the “duration of increases in tissue creatine phosphate levels” value (following oral creatine supplementation) is listed as > 14 days and the “increase in cerebral creatine phosphate” value [1] is listed as “about 10%”.
In the case of `CN(CC(=O)O)C(=N)N.O` [creatine monohydrate], the adverse side effects ([2]; athletes and body builders, 2-3 gm/day) is listed as “without adverse side effects”.
For `CN(CC(=O)O)C(=N)NP(=O)(O)O` [creatine phosphate], the adverse side effects ([2]; patients with cardiac diseases, intravenous injection up to 8 gm/day) is given as “without adverse side effects”.
For `NC1=NCCN1CC(=O)O` [cyclocreatine], the adverse effects [3] is given as “do not exhibit adverse effects”.
